These results are taken from patent US4614714A (priority 1982, dated 1986).

In assay [1] the test system is lyophilized cell of E. coli, which exhibits L-glutamic acid decarboxylase activity. To be noted: microorganism electrode, cited from earlier work; for Relative sensitivity ratio: glutamic acid = 100.
The test system of assay [2] is glutamic acid oxidase (known enzyme). To be noted: cited from earlier work; for activity of the known enzyme: relative to L-glutamic acid; for relative activity of the known enzyme: velocity of enzymatic reaction for L-glutamic acid given as 100.
Assay [3] concerns the target T1, novel L-glutamic acid oxidase (Streptomyces sp, UniProt Q8L3C7).
T1 sequence (Q8L3C7 15-390 limits assumed): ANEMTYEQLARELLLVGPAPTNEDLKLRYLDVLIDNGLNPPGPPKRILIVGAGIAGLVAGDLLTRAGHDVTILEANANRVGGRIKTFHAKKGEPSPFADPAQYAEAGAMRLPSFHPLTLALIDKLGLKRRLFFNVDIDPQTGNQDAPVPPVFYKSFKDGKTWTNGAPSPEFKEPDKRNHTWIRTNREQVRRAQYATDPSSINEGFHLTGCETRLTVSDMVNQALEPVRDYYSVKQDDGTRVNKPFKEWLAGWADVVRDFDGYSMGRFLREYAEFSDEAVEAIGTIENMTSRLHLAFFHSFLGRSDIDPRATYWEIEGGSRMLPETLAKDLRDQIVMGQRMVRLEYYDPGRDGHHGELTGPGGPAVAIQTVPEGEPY
T1 sequence (Q8L3C7 391-520 limits assumed): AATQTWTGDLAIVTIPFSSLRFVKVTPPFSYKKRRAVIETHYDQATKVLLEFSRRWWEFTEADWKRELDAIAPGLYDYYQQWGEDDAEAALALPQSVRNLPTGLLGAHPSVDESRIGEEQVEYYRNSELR
T1 sequence (Q8L3C7 521-701 limits assumed): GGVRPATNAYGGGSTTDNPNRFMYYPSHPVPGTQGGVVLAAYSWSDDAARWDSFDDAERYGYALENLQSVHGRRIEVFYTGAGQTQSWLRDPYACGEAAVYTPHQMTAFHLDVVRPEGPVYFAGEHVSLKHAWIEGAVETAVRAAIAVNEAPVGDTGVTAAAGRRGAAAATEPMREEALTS
Nature of the assay: Substrate specificity of the novel enzyme, oxygen electrode method. The protocol: The concentration of each substrate was 10 mM, and the reactions were carried out at pH 7.4 (0.1 M potassium phosphate buffer) and pH 6.0 (0.1 M acetate buffer).
That is, 1 ml of 0.1 M potassium phosphate buffer (pH 7.4) containing 10 mM sodium L-glutamate was charged into an oxygen electrode cell and 10 μl of an enzyme solution was added thereto to measure the oxygen consumption rate. One unit of enzyme was determined as the amount of enzyme which consumes 1μ mol of oxygen per minute at 30° C. in the absence of catalase (unit: hereinafter abbreviated as "U").

The target in assay [4] is T2, immobilized L-glutamic acid oxidase (Streptomyces sp, UniProt Q8L3C7).
T2 construct: from the cultured product of an actinomycete newly isolated from a soil sample; made in house; host or cells: cultured product of the natural (non-recombinant) actinomycete strain; immobilized on a Cellophane membrane with glutaraldehyde
T2 sequence (Q8L3C7 15-390 limits assumed): T1 sequence (Q8L3C7 15-390 limits assumed)
T2 sequence (Q8L3C7 391-520 limits assumed): T1 sequence (Q8L3C7 391-520 limits assumed)
T2 sequence (Q8L3C7 521-701 limits assumed): T1 sequence (Q8L3C7 521-701 limits assumed)
Briefly: Responses of the L-glutamic acid sensor of Example C1 to various amino acids. Format: biochemical, Streptomyces sp. X-119-6. The protocol: In FIG. 18, the sample solution 2 injected through inlet 1 is transferred by a peristaltic pump 4 together with oxygen saturated buffer 3 into a cell 5.
The results obtained by the measurement are shown as relative responses. The reaction was carried out in 0.1M of acetic acid-sodium acetate buffer at pH 5.5 and 30° C.

For assay [5], the system named is glutamic acid oxidase (known enzyme). Conditions: cited from earlier work.
Assay [6] has as its target T1, novel L-glutamic acid oxidase. Briefly: Effects of various additives on the activity of the novel enzyme. It is filed as biochemical, Streptomyces sp. X-119-6. Also on record: from the cultured product of an actinomycete newly isolated from a soil sample; made in house; host or cells: cultured product of the natural (non-recombinant) actinomycete strain, purified. Conditions: additive 1 mM, pH 7.4.

[7] abbreviates: pH 6, read-out: Relative Activity (%) pH 6.0, substrate 10 mM, pH 6.0 (0.1 M acetate buffer), relative to L-glutamic acid.
Setting [8] is: pH 7.4, read-out: Relative Activity (%) pH 7.4, substrate 10 mM, pH 7.4 (0.1 M potassium phosphate buffer), relative to L-glutamic acid.
Where [9] appears, read: pH 5.5, read-out: Relative response (%).
Where [10] appears, read: pH 6, read-out: Relative Activity (%) pH 6.0.
The mark [11] stands for this setting: pH 7.4, read-out: Relative Activity (%) pH 7.4.
[12] abbreviates: pH 5.5; read-out: Relative response (%).

Entries after “also recorded” stand apart in the source; their conditions may differ. Where two headings read alike, the source gives them in different places.

As for `N[C@@H](Cc1c[nH]c2ccccc12)C(=O)O` [Tryptophan], in assay [1], the Relative sensitivity ratio is 0.4.

In the case of `N[C@@H](CC(=O)O)C(=O)O` [L-Aspartic acid], the “activity of the known enzyme” value in assay [2] is at most 0.1%. Moreover, the “activity of the novel enzyme (in words)” value in assay [3] (pH 6.0) is listed as “substantially no activity; also recorded: substantially no action”. Also, the activity at 10000 µM is below 0.1% in assay [3] (setting [7]) and 0.6% in assay [3] (setting [8]). Further, in assay [3] (substrate 10 mM, pH 6.0 (0.1 M acetate buffer), relative to L-glutamic acid), the “Relative Activity (%) pH 6.0” value is listed as at most 0.1%. For the same molecule, in assay [4] (setting [9]), the activity at 2000 µM is below 1%.

In the case of `[Cl][Cu][Cl]` [CuCl2, cupric chloride], the “inhibition of the known enzyme (in words)” value in assay [5] was “completely inhibited”. Besides, the “inhibition of the activity of the novel enzyme (in words)” value in assay [6] is listed as “not inhibited at all”.

`[Cu+]` [copper ions]: in assay [5], the “inhibition of the known enzyme (in words)” value is “Substantially completely inhibited; also recorded: markedly inhibited”.

For the molecule `NCC(=O)O` [Glycine], the activity at 10000 µM in assay [3] (setting [7]) and in assay [3] (setting [8]) was below 0.1% throughout. In addition, the activity at 2000 µM in assay [4] (setting [9]) was below 0.1%. The Relative sensitivity ratio in assay [1] is recorded as 0.4.

With `N[C@@H](Cc1c[nH]cn1)C(=O)O` [L-Histidine], in assay [2], the “activity of the known enzyme” value is listed as 6.8% and the “relative activity of the known enzyme” value is recorded as 6.8. In addition, in assay [3] (setting [10]), the activity at 10000 µM was below 0.1%. Also, the “activity of the novel enzyme (in words)” value in assay [3] (pH 7.4) is on record as “substantially no activity”. For the same molecule, the activity at 10000 µM in assay [3] (setting [11]) is below 0.1%. For the same molecule, the activity at 2000 µM in assay [4] (setting [12]) was below 0.1%.

On to `N[C@@H](CSSC[C@H](N)C(=O)O)C(=O)O` [Cystine], for which, in assay [1], the Relative sensitivity ratio is on record as 0.4.

For the molecule `N=C(N)NCCC[C@H](N)C(=O)O` [Arginine], the Relative sensitivity ratio in assay [1] is reported as 0.6.

For the molecule `N[C@@H](CCC(=O)O)C(=O)O` [Glutamic acid], in assay [1], the Relative sensitivity ratio was 100.

On to `N[C@@H](CC(=O)O)C(=O)O` [Aspartic acid], for which the Relative sensitivity ratio in assay [1] is 1.0.

For the molecule `CC(C)[C@H](N)C(=O)O` [L-Valine], the activity at 10000 µM in assay [3] (setting [7]) and in assay [3] (setting [8]) was below 0.1% throughout. The activity at 2000 µM in assay [4] (setting [9]) is below 0.1%.

For `O=C(O)[C@@H]1CCCN1` [L-Proline], the activity at 10000 µM in assay [3] (setting [7]) and in assay [3] (setting [8]) was below 0.1% in each case. The activity at 2000 µM in assay [4] (setting [9]) was below 0.1%.

Take `NC(=O)CC[C@H](N)C(=O)O` [Glutamine]: the “Relative sensitivity ratio, acetone treated cell” value in assay [1] (acetone treated cell was employed) is on record as 11. In addition, the Relative sensitivity ratio in assay [1] was 108.

With mercury ions, in assay [5], the “inhibition of the known enzyme (in words)” value is given as “Substantially completely inhibited”.

Regarding `CC[C@H](C)[C@H](N)C(=O)O` [L-Isoleucine], the activity at 10000 µM in assay [3] (setting [7]) and in assay [3] (setting [8]) was below 0.1% in each case. Moreover, in assay [4] (setting [9]), the activity at 2000 µM was below 0.1%.

For the molecule `C[C@@H](O)[C@H](N)C(=O)O` [L-Threonine], the activity at 10000 µM in assay [3] (setting [10]) and in assay [3] (setting [11]) was below 0.1% throughout. Also, in assay [4] (setting [12]), the activity at 2000 µM was below 0.1%.

`NC(=O)CC[C@H](N)C(=O)O` [L-Glutamine]: in assay [2], the “activity of the known enzyme” value was 8.4% and the “relative activity of the known enzyme” value was 8.4. The activity at 10000 µM in assay [3] (setting [7]) is below 0.1%. Besides, in assay [3] (pH 7.4), the “activity of the novel enzyme (in words)” value was “substantially no activity”. Moreover, the activity at 10000 µM in assay [3] (setting [8]) is below 0.1%. The activity at 2000 µM in assay [4] (setting [9]) is below 2%.

In the case of `N=C(N)NCCC[C@H](N)C(=O)O` [L-Arginine], the activity at 10000 µM in assay [3] (setting [7]) and in assay [3] (setting [8]) was below 0.1% throughout. Also, the activity at 2000 µM in assay [4] (setting [9]) was below 0.1%.

Consider `C[C@H](N)C(=O)O` [Alanine], for which, in assay [1], the Relative sensitivity ratio is 0.5.

As to `N[C@@H](CCC(=O)O)C(=O)O` [L-Glutamic acid], the activity at 10000 µM in assay [3] (setting [10]) and in assay [3] (setting [11]) was 100% in each case. The activity at 2000 µM in assay [4] (setting [12]) is 100%.

Turning to `N[C@@H](CS)C(=O)O` [L-Cysteine], the activity at 10000 µM in assay [3] (setting [7]) and in assay [3] (setting [8]) was below 0.1% throughout. The activity at 2000 µM in assay [4] (setting [9]) was below 0.1%.
